Experimental data as given in patent publication US6951856B2, “Arylethene-sulfonamides” (Actelion Pharmaceuticals Ltd., priority 2000, dated 2005).

How the values were obtained:
[1] = target: T1, human recombinant ETB receptors (Homo sapiens, UniProt P24530); test: Inhibition of [125I]ET-1 binding to membranes from CHO cells carrying human ETB receptors
T1 construct: expressed in transfected cells; host or cells: CHO cells (microsomal membranes)
T1 sequence (P24530 27-442): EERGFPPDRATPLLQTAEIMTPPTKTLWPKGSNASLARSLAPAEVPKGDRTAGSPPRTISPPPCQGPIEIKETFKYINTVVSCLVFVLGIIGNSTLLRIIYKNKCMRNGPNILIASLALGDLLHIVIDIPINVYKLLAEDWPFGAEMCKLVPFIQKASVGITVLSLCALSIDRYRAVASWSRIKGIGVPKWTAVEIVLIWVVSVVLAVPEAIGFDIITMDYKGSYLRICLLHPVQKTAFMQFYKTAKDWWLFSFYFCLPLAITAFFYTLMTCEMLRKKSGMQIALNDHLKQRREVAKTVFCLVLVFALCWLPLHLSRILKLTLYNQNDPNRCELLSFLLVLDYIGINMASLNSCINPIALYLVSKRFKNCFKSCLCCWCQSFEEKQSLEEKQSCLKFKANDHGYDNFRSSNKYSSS
Method: (§1) 1) Inhibition of Endothelin Binding to Membranes from CHO Cells Carrying Human ET Receptors
(§2) For competition binding studies, membranes of CHO cells expressing human recombinant ETA or ETB receptors were used. Microsomal membranes from recombinant CHO cells were prepared and the binding assay made as previously described (Breu V., et al, FEBS Lett 1993; 334:210).
(§3) The assay was performed in 200 uL 50 mM Tris/HCl buffer, pH 7.4, including 25 mM MnCl2, 1 mM EDTA and 0.5% (w/v) BSA in polypropylene microtiter plates. […] After 2 h, the membranes were filtered on filterplates containing GF/C filters (Unifilterplates from Canberra Packard S.A. Zürich, Switzerland). To each well, 50 uL of scintillation cocktail was added (MicroScint 20, Canberra Packard S.A. Zürich, Switzerland) and the filter plates counted in a microplate counter (TopCount, Canberra Packard S.A. Zürich, Switzerland).
(§4) All the test compounds were dissolved, diluted and added in DMSO.

[2] = target: T2, human recombinant ETA receptors (Homo sapiens, UniProt P25101); test: Inhibition of [125I]ET-1 binding to membranes from CHO cells carrying human ETA receptors; settings: CHO cell membranes, 8 pM [125I]ET-1, 2 h at 20° C.
T2 construct: expressed in transfected cells; host or cells: CHO cells (microsomal membranes)
T2 sequence (P25101 21-427): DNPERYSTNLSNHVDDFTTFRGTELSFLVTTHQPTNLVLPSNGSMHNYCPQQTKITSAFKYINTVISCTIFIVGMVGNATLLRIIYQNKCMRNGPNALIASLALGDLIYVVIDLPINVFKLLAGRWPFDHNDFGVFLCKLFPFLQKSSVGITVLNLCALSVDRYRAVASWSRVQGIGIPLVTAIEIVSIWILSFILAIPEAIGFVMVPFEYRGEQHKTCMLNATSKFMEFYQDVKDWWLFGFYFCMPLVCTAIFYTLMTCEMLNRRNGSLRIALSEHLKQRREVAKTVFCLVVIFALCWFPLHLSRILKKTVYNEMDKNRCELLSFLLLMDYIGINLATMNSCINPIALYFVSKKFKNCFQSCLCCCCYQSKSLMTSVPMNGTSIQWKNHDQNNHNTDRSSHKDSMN
Method: as §1, §2, §3, §4

[3] = target: T3, ETA receptors (Rattus norvegicus, UniProt P26684); test: Inhibition of endothelin-1-induced contractions on isolated rat aortic rings; format: cell-based; settings: read-out: pA2 value ETA (converted)
T3 construct: The thoracic aorta or trachea were excised, dissected and cut in 3-5 mm rings; from tissue; host or cells: thoracic aorta rings of adult Wistar rats, endothelium removed
T3 sequence (P26684 21-426): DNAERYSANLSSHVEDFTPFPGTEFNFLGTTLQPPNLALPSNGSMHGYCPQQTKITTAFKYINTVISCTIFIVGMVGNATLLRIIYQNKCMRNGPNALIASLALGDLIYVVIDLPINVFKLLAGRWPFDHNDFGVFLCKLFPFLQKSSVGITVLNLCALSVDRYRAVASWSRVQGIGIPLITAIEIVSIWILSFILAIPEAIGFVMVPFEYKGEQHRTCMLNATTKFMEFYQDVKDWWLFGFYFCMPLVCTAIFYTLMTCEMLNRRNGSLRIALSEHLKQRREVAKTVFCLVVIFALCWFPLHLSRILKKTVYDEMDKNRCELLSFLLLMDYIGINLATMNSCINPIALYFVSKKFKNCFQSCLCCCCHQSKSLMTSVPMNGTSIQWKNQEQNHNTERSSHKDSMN
Method: 2) Inhibition of Endothelin-Induced Contractions on Isolated Rat Aortic Rings (ETA Receptors) and Rat Tracheal Rings (ETB Receptors):
Adult Wistar rats were anesthetized and exsanguinated. The thoracic aorta or trachea were excised, dissected and cut in 3-5 mm rings. The endothelium/epithelium was removed by gentle rubbing of the intimal surface. Each ring was suspended in a 10 ml isolated organ bath filled with Krebs-Henseleit solution (in mM; NaCl 115, KCl 4.7, MgSO4 1.2, KH2PO4 1.5, NaHCO3 25, CaCl2 2.5, glucose 10) kept at 37° and gassed with 95% O2 and 5% CO2. The rings were connected to force transducers and isometric tension was recorded (EMKA Technologies SA, Paris, France). The rings were stretched to a resting tension of 3 g (aorta) or 2 g (trachea). […] The functional inhibitory potency of the test compound was assessed by calculating the concentration ratio, i.e. the shift to the right of the EC50 induced by different concentrations of test compound. EC50 is the concentration of endothelin needed to get a half-maximal contraction, pA2 is the negative logarithm of the antagonist concentration which induces a two-fold shift in the EC50 value.

SMILES | IC50 [1] [µM] | IC50 [2] [µM] | Kb [3] [µM]
Cc1ccc(-c2c(NS(=O)(=O)/C=C/c3ccccc3)nc(C3CC3)nc2OCCOc2ncc(Cl)cn2)cc1 [Example 134] | 4.89 | 0.0063 | 
Cc1ccc(-c2c(NS(=O)(=O)/C=C/c3cccc(C)c3)ncnc2OCCOc2ncc(Br)cn2)cc1 [Example 41] | 1.78 | 0.0054 | 
Cc1ccc(-c2c(NS(=O)(=O)/C=C/c3ccccc3)nc(C3CC3)nc2OCCOc2ncc(Br)cn2)cc1 [Example 132] | 1.66 | 0.0057 | 
COc1ccccc1Oc1c(NS(=O)(=O)/C=C/c2ccccc2)nc(-c2ccncc2)nc1OCCOc1ncc(Br)cn1 [Example 159] | 2.28 | 0.0073 | 
Cc1ccc(-c2c(NS(=O)(=O)/C=C/c3ccccc3)nc(N3CCOCC3)nc2OCCOc2ncc(Br)cn2)cc1 [Example 127] | 2.75 | 0.0142 | 
COc1cnc(OCCOc2nc(-c3ccncc3)nc(NS(=O)(=O)/C=C/c3ccccc3)c2-c2ccc(C)cc2)nc1 [Example 83] | 7.59 | 0.0275 | 
CSc1nc(NS(=O)(=O)/C=C/c2ccccc2)c(-c2ccccc2)c(OCCOc2ncc(Br)cn2)n1 [Example 101] | 8.68 | 0.0307 | 
O=S(=O)(/C=C/c1ccccc1)Nc1nc(-c2ccncc2)nc(OCCOc2ncc(Br)cn2)c1-c1ccc(Cl)cc1 [Example 65] | 2.52 | 0.017 | 
COc1ccccc1Oc1c(NS(=O)(=O)/C=C/c2ccccc2)nc(-c2ccncc2)nc1OCCOc1ncc(Cl)cn1 [Example 164] | 1.56 | 0.01 | 
CS(=O)(=O)c1nc(NS(=O)(=O)/C=C/c2ccccc2)c(-c2ccccc2)c(OCCOc2ncc(Br)cn2)n1 [Example 107] | 4.65 | 0.0085 | 
Cc1cccc(/C=C/S(=O)(=O)Nc2ncnc(OCCOc3ncc(Br)cn3)c2-c2ccc(Cl)cc2)c1 [Example 52] | 1.49 | 0.0075 | 
CCc1ccc(-c2c(NS(=O)(=O)/C=C/c3ccccc3)ncnc2OCCOc2ncc(Br)cn2)cc1 [Example 36] | 3.39 | 0.02 | 
COc1cnc(OCCOc2nc(-c3cnccn3)nc(NS(=O)(=O)/C=C/c3ccccc3)c2-c2ccc(C)cc2)nc1 [Example 126] | 3.64 | 0.009 | 
COCCOc1nc(NS(=O)(=O)/C=C/c2ccccc2)c(-c2ccccc2)c(OCCOc2ncc(Br)cn2)n1 [Example 113] | > 10 | 0.0147 | 
Cc1ccc(-c2c(NS(=O)(=O)/C=C/c3ccccc3)ncnc2OCCOc2nc3ccccc3o2)cc1 [Example 16] | 1.13 | 0.0622 | 
COc1ccccc1Oc1c(NS(=O)(=O)/C=C/c2cccs2)ncnc1OCCOc1ncc(Br)cn1 [Example 214] | 3.94 | 0.039 | 
COc1ccccc1Oc1c(NS(=O)(=O)/C=C/c2ccccc2)nc(-c2cnccn2)nc1OCCOc1ncc(Br)cn1 [Example 182] | 1.4 | 0.0167 | 

Stronger by IC50 [1], values ahead:

IC50 [1] [µM] | IC50 [2] [µM] | Kb [3] [µM] | SMILES
0.841 | 0.00475 | 0.00214 | Cc1ccc(-c2c(NS(=O)(=O)/C=C/c3ccccc3)ncnc2OCCOc2ncc(Cl)cn2)cc1 [Example 14]
0.336 | 0.0043 |  | COc1cnc(OCCOc2ncnc(NS(=O)(=O)/C=C/c3cccs3)c2-c2ccc(Br)cc2)nc1 [Example 90]
0.439 | 0.0039 |  | O=S(=O)(/C=C/c1ccccc1)Nc1ncnc(OCCOc2ncc(Cl)cn2)c1-c1ccc(Br)cc1 [Example 87]
0.499 | 0.0047 |  | COc1ccccc1Oc1c(NS(=O)(=O)/C(C)=C/c2ccccc2)nc(-c2ccncc2)nc1OCCOc1ncc(Br)cn1 [Example 175]
0.595 | 0.0079 |  | COc1ccccc1Oc1c(NS(=O)(=O)/C=C/c2ccccc2)nc(N2CCOCC2)nc1OCCOc1ncc(C(F)(F)F)cn1 [Example 198]
0.193 | 0.0046 |  | COc1cnc(OCCOc2ncnc(NS(=O)(=O)/C=C/c3ccccc3)c2-c2ccc(Br)cc2)nc1 [Example 86]
1.08 | 0.0041 |  | COc1ccccc1Oc1c(NS(=O)(=O)/C(C)=C/c2ccccc2)nc(-c2ccncc2)nc1OCCOc1ncc(Cl)cn1 [Example 176]
0.671 | 0.005 |  | COc1ccccc1Oc1c(NS(=O)(=O)/C=C/c2ccsc2)nc(-c2ccncc2)nc1OCCOc1ncc(Br)cn1 [Example 178]
0.735 | 0.055 |  | COc1ccc(-c2c(NS(=O)(=O)/C=C/c3ccccc3)ncnc2OCCOc2ncc(OC)cn2)cc1 [Example 119]
0.507 | 0.017 |  | Cc1ccc(-c2c(NS(=O)(=O)/C=C/c3cccs3)ncnc2OCCOc2ccc(Br)cn2)cc1 [Example 71]
0.558 | 0.03 |  | Cc1ccc(/C=C/S(=O)(=O)Nc2ncnc(OCCOc3ncc(Cl)cn3)c2-c2ccc(Cl)cc2)cc1 [Example 60]
0.138 | 0.0033 |  | COc1ccccc1Oc1c(NS(=O)(=O)/C=C/c2ccccc2)nc(N2CCOCC2)nc1OCCOc1ncc(SC)cn1 [Example 204]
0.757 | 0.0129 |  | COc1cnc(OCCOc2nc(-c3ccncc3)nc(NS(=O)(=O)/C=C/c3ccccc3)c2Oc2ccccc2OC)nc1 [Example 160]
0.749 | 0.0147 |  | COc1cnc(OCCOc2ncnc(NS(=O)(=O)/C=C/c3ccccc3)c2-c2ccc(C)cc2)nc1 [Example 21]
0.629 | 0.0062 |  | Cc1ccc(-c2c(NS(=O)(=O)/C=C/c3ccccc3)ncnc2OCCOc2ncc(Br)cn2)cc1C [Example 40]
0.264 | 0.0185 |  | Cc1ccc(-c2c(NS(=O)(=O)/C=C/c3ccccc3)ncnc2OCCOc2ccc(Br)cn2)cc1 [Example 11]
0.752 | 0.00704 |  | O=S(=O)(/C=C/c1ccccc1)Nc1ncnc(OCCOc2ncc(Cl)cn2)c1-c1ccc(Cl)cc1 [Example 47]
0.363 | 0.0055 |  | COc1cnc(OCCOc2nc(-c3ccncc3)nc(NS(=O)(=O)/C(C)=C/c3ccccc3)c2Oc2ccccc2OC)nc1 [Example 177]
0.249 | 0.0034 |  | COc1cnc(OCCOc2nc(N3CCOCC3)nc(NS(=O)(=O)/C(C)=C/c3ccccc3)c2Oc2ccccc2OC)nc1 [Example 203]
1.01 | 0.0098 |  | COc1ccc(-c2c(NS(=O)(=O)/C=C/c3ccccc3)ncnc2OCCOc2ncc(Br)cn2)cc1 [Example 118]
0.173 | 0.00456 |  | CSc1cnc(OCCOc2ncnc(NS(=O)(=O)/C=C/c3ccccc3)c2-c2ccc(Cl)cc2)nc1 [Example 51]
